Some results are limits rather than exact numbers.

In general, Ki refers to a dissociation constant, usually derived from enzyme kinetics or from competition with a known ligand.

Sequence of HPK1 (Q92918 1-346): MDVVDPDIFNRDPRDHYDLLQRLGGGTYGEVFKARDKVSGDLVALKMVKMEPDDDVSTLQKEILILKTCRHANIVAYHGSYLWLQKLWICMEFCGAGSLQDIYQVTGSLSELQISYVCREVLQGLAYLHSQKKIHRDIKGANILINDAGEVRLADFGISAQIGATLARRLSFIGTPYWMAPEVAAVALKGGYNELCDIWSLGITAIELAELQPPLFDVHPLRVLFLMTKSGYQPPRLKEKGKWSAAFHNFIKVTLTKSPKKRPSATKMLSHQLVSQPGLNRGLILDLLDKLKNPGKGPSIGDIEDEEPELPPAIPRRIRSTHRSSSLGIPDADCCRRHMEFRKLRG

The target of this assay is HPK1 (Homo sapiens (Human), UniProt Q92918). As to the kind of experiment: HPK1 Kinase Binding Assay. The method in brief:
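Active HPK1 (added as 4 nM solution) was combined with compound (3-fold, 11-point series) and tracer 222 (18 nM) plus Eu-anti-GST antibody (4 nM) in 50 mM HEPES pH 7.5 with MgCl2 and DTT. After 1 h at 25 °C plates were read. Ki values were derived.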
`Cc1cc(CNC2CC2)cc(F)c1-c1cc2c(-c3cnn(C)c3)n[nH]c2cn1` [Example 177, N-(3-Fluoro-5-methyl-4-(3-(1-methyl-1H-pyrazol-4-yl)-1H-pyrazolo[3,4-c]pyridin-5-yl)benzyl)cyclopropanamine]: the Ki was at most 100 nM.
For the compound `Cc1cc(CNC(C)C)cc(F)c1-c1cc2c(-c3cnn(C)c3)n[nH]c2cn1` [Example 178, N-(3-Fluoro-5-methyl-4-(3-(1-methyl-1H-pyrazol-4-yl)-1H-pyrazolo[3,4-c]pyridin-5-yl)benzyl)propan-2-amine], the inhibition constant Ki was at most 100 nM.
For `Cc1cc(CNCC(F)(F)F)cc(F)c1-c1cc2c(-c3cnn(C)c3)n[nH]c2cn1` [Example 179, 2,2,2-Trifluoro-N-(3-fluoro-5-methyl-4-(3-(1-methyl-1H-pyrazol-4-yl)-1H-pyrazolo[3,4-c]pyridin-5-yl)benzyl)ethanamine] the value was at most 100 nM; for `Cc1cc(CNCCO)cc(F)c1-c1cc2c(-c3cnn(C)c3)n[nH]c2cn1` [Example 180, 2-(3-Fluoro-5-methyl-4-(3-(1-methyl-1H-pyrazol-4-yl)-1H-pyrazolo[3,4-c]pyridin-5-yl)benzylamino)ethanol], at most 100 nM; for `Cc1cc(CNC2CC(O)C2)cc(F)c1-c1cc2c(-c3cnn(C)c3)n[nH]c2cn1` (stereo not shown) [Example 181, 3-(3-Fluoro-5-methyl-4-(3-(1-methyl-1H-pyrazol-4-yl)-1H-pyrazolo[3,4-c]pyridin-5-yl)benzylamino)cyclobutanol], at most 100 nM.
With `Cc1cc(CN2CCC2)cc(F)c1-c1cc2c(-c3cnn(C)c3)n[nH]c2cn1` [Example 182, 5-(4-(Azetidin-1-ylmethyl)-2-fluoro-6-methylphenyl)-3-(1-methyl-1H-pyrazol-4-yl)-1H-pyrazolo[3,4-c]pyridine] the figure was at most 100 nM; with `Cc1cc(CN2CCC(O)C2)cc(F)c1-c1cc2c(-c3cnn(C)c3)n[nH]c2cn1` (stereo not shown) [Example 183, 1-(3-Fluoro-5-methyl-4-(3-(1-methyl-1H-pyrazol-4-yl)-1H-pyrazolo[3,4-c]pyridin-5-yl)benzyl)pyrrolidin-3-ol], at most 100 nM.
For `Cc1cc(CNCC(C)(C)O)cc(F)c1-c1cc2c(-c3cnn(C)c3)n[nH]c2cn1` [Example 184, 1-(3-Fluoro-5-methyl-4-(3-(1-methyl-1H-pyrazol-4-yl)-1H-pyrazolo[3,4-c]pyridin-5-yl)benzylamino)-2-methylpropan-2-ol] the value was at most 100 nM; for `COC1CN(Cc2cc(C)c(-c3cc4c(-c5cnn(C)c5)n[nH]c4cn3)c(F)c2)C1` [Example 185, 5-(2-Fluoro-4-((3-methoxyazetidin-1-yl)methyl)-6-methylphenyl)-3-(1-methyl-1H-pyrazol-4-yl)-1H-pyrazolo[3,4-c]pyridine], at most 100 nM; for `Cc1cc(CNCc2cn(C)cn2)cc(F)c1-c1cc2c(-c3cnn(C)c3)n[nH]c2cn1` [Example 186, N-(3-Fluoro-5-methyl-4-(3-(1-methyl-1H-pyrazol-4-yl)-1H-pyrazolo[3,4-c]pyridin-5-yl)benzyl)-1-(1-methyl-1H-imidazol-4-yl)methanamine], at most 100 nM.
Take `Cc1cc(CNCc2cocn2)cc(F)c1-c1cc2c(-c3cnn(C)c3)n[nH]c2cn1` [Example 187, N-(3-Fluoro-5-methyl-4-(3-(1-methyl-1H-pyrazol-4-yl)-1H-pyrazolo[3,4-c]pyridin-5-yl)benzyl)-1-(oxazol-4-yl)methanamine]: the Ki is at most 100 nM.
With `Cc1cc(CNCC#N)cc(F)c1-c1cc2c(-c3cnn(C)c3)n[nH]c2cn1` [Example 188, 2-(3-Fluoro-5-methyl-4-(3-(1-methyl-1H-pyrazol-4-yl)-1H-pyrazolo[3,4-c]pyridin-5-yl)benzylamino)acetonitrile] the figure was at most 100 nM; with `CC(=O)NCc1cc(C)c(-c2cc3c(-c4cnn(C)c4)n[nH]c3cn2)c(F)c1` [Example 191, N-(3-Fluoro-5-methyl-4-(3-(1-methyl-1H-pyrazol-4-yl)-1H-pyrazolo[3,4-c]pyridin-5-yl)benzyl)acetamide], at most 100 nM.
For `COC(=O)NCc1cc(C)c(-c2cc3c(-c4cnn(C)c4)n[nH]c3cn2)c(F)c1` [Example 192, Methyl 3-fluoro-5-methyl-4-(3-(1-methyl-1H-pyrazol-4-yl)-1H-pyrazolo[3,4-c]pyridin-5-yl)benzylcarbamate] the value was at most 100 nM; for `CNCc1cc(F)c(-c2cc3c(-c4ccc(N5CCN(C(C)=O)CC5)cn4)n[nH]c3cn2)c(OC(F)F)c1` [Example 193, 1-(4-(6-(5-(2-(Difluoromethoxy)-6-fluoro-4-((methylamino)methyl)phenyl)-1H-pyrazolo[3,4-c]pyridin-3-yl)pyridin-3-yl)piperazin-1-yl)ethanone], at most 100 nM; for `CN1CCN(c2ccc(-c3n[nH]c4cnc(-c5c(F)cccc5CC#N)cc34)cc2)CC1` [Example 194, 2-(3-Fluoro-2-(3-(4-(4-methylpiperazin-1-yl)phenyl)-1H-pyrazolo[3,4-c]pyridin-5-yl)phenyl)acetonitrile], at most 100 nM.
For `CN1CCN(c2ccc(-c3n[nH]c4cnc(-c5c(F)cccc5CN)cc34)cc2)CC1` [Example 195, (3-Fluoro-2-(3-(4-(4-methylpiperazin-1-yl)phenyl)-1H-pyrazolo[3,4-c]pyridin-5-yl)phenyl)methanamine] the value was at most 100 nM; for `CN1CCN(c2ccc(-c3n[nH]c4cnc(-c5c(F)cccc5CO)cc34)cc2)CC1` [Example 196, (3-Fluoro-2-(3-(4-(4-methylpiperazin-1-yl)phenyl)-1H-pyrazolo[3,4-c]pyridin-5-yl)phenyl)methanol], at most 100 nM; for `CNC1CCc2c1cc(F)c(-c1cc3c(-c4ccc(N5CCN(C)CC5)cc4)n[nH]c3cn1)c2F` (stereo not shown) [Example 197, 4,6-Difluoro-N-methyl-5-(3-(4-(4-methylpiperazin-1-yl)phenyl)-1H-pyrazolo[3,4-c]pyridin-5-yl)-2,3-dihydro-1H-inden-1-amine], at most 100 nM.
Turning to `CNC1CCc2c1cc(F)c(-c1cc3c(-c4cnn(C)c4)n[nH]c3cn1)c2F` (stereo not shown) [Example 198, 4,6-Difluoro-N-methyl-5-(3-(1-methyl-1H-pyrazol-4-yl)-1H-pyrazolo[3,4-c]pyridin-5-yl)-2,3-dihydro-1H-inden-1-amine], the inhibition constant Ki was at most 100 nM.
With `CNC1CCc2cc(F)c(-c3cc4c(-c5ccc(N6CCN(C)CC6)cc5)n[nH]c4cn3)c(F)c2C1` (stereo not shown) [Example 199, 6,8-Difluoro-N-methyl-7-(3-(4-(4-methylpiperazin-1-yl)phenyl)-1H-pyrazolo[3,4-c]pyridin-5-yl)-1,2,3,4-tetrahydronaphthalen-2-amine] the figure was at most 100 nM; with `CNC1CCc2cc(F)c(-c3cc4c(-c5cnn(C)c5)n[nH]c4cn3)c(F)c2C1` (stereo not shown) [Example 200, 6,8-Difluoro-N-methyl-7-(3-(1-methyl-1H-pyrazol-4-yl)-1H-pyrazolo[3,4-c]pyridin-5-yl)-1,2,3,4-tetrahydronaphthalen-2-amine], at most 100 nM.
Consider `CNC(=O)c1ccc(-c2n[nH]c3cnc(-c4c(F)cc5c(c4F)CCCC5NC)cc23)cc1` (stereo not shown) [Example 201, 4-(5-(1,3-Difluoro-5-(methylamino)-5,6,7,8-tetrahydronaphthalen-2-yl)-1H-pyrazolo[3,4-c]pyridin-3-yl)-N-methylbenzamide], for which the Ki was at most 100 nM.
As to `CNC1CCCc2c1cc(F)c(-c1cc3c(-c4cnn(C)c4)n[nH]c3cn1)c2F` (stereo not shown) [Example 202, 5,7-Difluoro-N-methyl-6-(3-(1-methyl-1H-pyrazol-4-yl)-1H-pyrazolo[3,4-c]pyridin-5-yl)-1,2,3,4-tetrahydronaphthalen-1-amine], the Ki was at most 100 nM.
For `CN1CCN(c2ccc(-c3n[nH]c4cnc(-c5c(F)cc6c(c5F)CCCC6N)cc34)cn2)CC1` (stereo not shown) [Example 203, 5,7-Difluoro-6-(3-(6-(4-methylpiperazin-1-yl)pyridin-3-yl)-1H-pyrazolo[3,4-c]pyridin-5-yl)-1,2,3,4-tetrahydronaphthalen-1-amine] the value was at most 100 nM.
Turning to `CNC(=O)c1ccc(-c2n[nH]c3cnc(-c4c(F)cc5c(c4F)C(NC)CC5)cc23)cc1` (stereo not shown) [Example 204, 4-(5-(4,6-Difluoro-3-(methylamino)-2,3-dihydro-1H-inden-5-yl)-1H-pyrazolo[3,4-c]pyridin-3-yl)-N-methylbenzamide], the Ki is at most 100 nM.
With `CNC1CCc2cc(F)c(-c3cc4c(-c5ccc(N6CCN(C)CC6)cc5)n[nH]c4cn3)c(F)c21` (stereo not shown) [Example 205, 5,7-Difluoro-N-methyl-6-(3-(4-(4-methylpiperazin-1-yl)phenyl)-1H-pyrazolo[3,4-c]pyridin-5-yl)-2,3-dihydro-1H-inden-1-amine] the figure was at most 100 nM; with `COc1c(-c2cc3c(-c4ccc(N5CCN(C)CC5)cc4)n[nH]c3cn2)c(F)cc2c1C(N)CC2` (stereo not shown) [Example 206, 5-Fluoro-7-methoxy-6-(3-(4-(4-methylpiperazin-1-yl)phenyl)-1H-pyrazolo[3,4-c]pyridin-5-yl)-2,3-dihydro-1H-inden-1-amine], at most 100 nM; with `COc1c(-c2cc3c(-c4cnn(C)c4)n[nH]c3cn2)c(F)cc2c1C(N)CC2` (stereo not shown) [Example 207, 5-Fluoro-7-methoxy-6-(3-(1-methyl-1H-pyrazol-4-yl)-1H-pyrazolo[3,4-c]pyridin-5-yl)-2,3-dihydro-1H-inden-1-amine], at most 100 nM.
For `CNC(=O)c1ccc(-c2n[nH]c3cnc(-c4c(F)ccc5c4CCCC5NC)cc23)cn1` (stereo not shown) [Example 208, 5-(5-(2-Fluoro-5-(methylamino)-5,6,7,8-tetrahydronaphthalen-1-yl)-1H-pyrazolo[3,4-c]pyridin-3-yl)-N-methylpicolinamide] the value was at most 100 nM.
With `CNC1CCCc2c1ccc(F)c2-c1cc2c(-c3ccc(N4CCN(C)CC4)cc3)n[nH]c2cn1` (stereo not shown) [Example 209, 6-Fluoro-N-methyl-5-(3-(4-(4-methylpiperazin-1-yl)phenyl)-1H-pyrazolo[3,4-c]pyridin-5-yl)-1,2,3,4-tetrahydronaphthalen-1-amine] the figure was at most 100 nM.

The values are drawn from patent US10435405B2, “Pyrazolopyridine compounds and uses thereof” (Incyte Corporation, priority 2016, dated 2019).
